Reference: patent publication US8541607B2, “Disulfide, sulfide, sulfoxide, and sulfone derivatives of cyclic sugars and uses thereof” (Lacer, S.A., priority 2003, dated 2013)

Legend:
arterial rings = assay: Test of vasorelaxation on arterial rings contracted with phenylephrine; type: cell-based; details: artery ring contracted with 1 μM Phenylephrine; mean ± s.d.; read-out: EC50 (vasodilatation equal to 50% of the maximum tone)
Protocol: The method used in the assays is substantially the same as described in following references: • * Furchgot, R. F., “Methods in nitric oxide research”; Feelisch & Stamler, eds., John Wiley & Sons, Chichester, England, pp 567-581. • * Trongvanbichnam K., et al., Jpn. J. Pharmacol. 71 (1996); 167-173. • * Sales, E., at al., Eur. J. Pharmacol. 258 (1994); 47-55.
The different compounds are tested at 5 different concentrations, at a concentration range from 0.0001 to 10 mM, using from 6 to 9 arterial rings for each compound. The obtained results are compared to those from the isosorbide 5-mononitrate, which is used as reference product.
The results are shown in table 1 below and are provided as EC50 (effective concentration 50), which is the concentration of each of the tested, compounds yielding a vasodilatation equal to 50% of the maximum tone at which the artery ring has been contracted with 1 μM of Phenylephrine.

[1] = tested on: Rats, left carotid artery thrombosis (FeCl3); assay: In vivo antithrombotic effect, FeCl3 carotid artery thrombosis; set-up: species or system rat; details: single oral dose of 100 mg/Kg; no occlusion during 60 min after FeCl3 patch
Protocol: The method used is substantially the same as described by Kurz (Kurz K. D., et al., Thromb. Res. 1990, 60:269-280) and modified by Feuerstein (Feuerstein G. Z., et al., Artherioscler. Thromb. Vase. Biol. 1999, 19: 2554-25562).
Rats received a single oral dose of 100 mg/Kg of the compounds.
Forty-five minutes after dosing rats were anaesthetized with sodium pentobarbital (40 mg/kg, i.p.) and they were placed later dorsally on a heated (37° C.) surgical board.
The left carotid artery was isolated and a Parafilm 4 sheet (7×20 mm, American National Can) was placed under it. An electromagnetic sounding of flow (Transonic Systems Inc.) was placed on the artery to measure blood flow.
Sixty minutes after product administration, a paper patch saturated with FeCl3 solution (70%) was placed (and not removed for the whole duration of the experiment) on the left carotid artery downstream from the sounding of flow to initiate thrombosis. The blood flow was controlled during the 60 min later to the application of the patch in the artery.
The vessel was considered totally occluded by the thrombus formed when no blood flow was detected (0.0 ml/min). In this model, thrombus formation usually takes place within 15 to 20 minutes in non-treated animals.

[2] = tested on: U937 monocyte adhesion to activated HMEC-1 human endothelial cells; assay: Inhibition of U937 monocyte adhesion to TNF-α activated HMEC-1; type: cell-based; details: HMEC-1 activated by TNF-α (50 ng/ml); mean ± s.e.m.
Source text: The methods used in the assays to determine the effect of the compounds on platelet and monocyte adhesion to human endothelial cells are substantially the same as described in the following references: • Del Maschio A. et al., J Cell Biol 1996; 135: 497-510 • Bombeli T. et al., Blood 1999; 93: 3831-3838 • Colomé C. et al; Atherosclerosis 2000; 149: 295-302; and • Martin-Satue M. at al; British Journal of Cancer 1999; 80; 1169-1174
The adhesion of the U937-monocyte cells to confluent human microvasculature endothelial cells (HMEC-1) activated by means of TNF-α (50 ng/ml) and the platelets to human umbilical endothelial cells (HUVEC) were the methods used to determine the inhibitory effect of compounds on cellular adhesion. The adhesion of monocytes previously labeled with calcein-2M (Molecular Probes) to HMEC-1 activated by TNF-α, was assessed by determination of the associated-cell fluorescence. The adhesion of washed human platelets previously labeled with MoAb against CD36-FITC to activated-HUVEC (50 μg/ml of LDL minimally modified, LDLmm) was determined by Laser Scanning Cytometry (LSC, Olympus) determining the associated-cell fluorescence. Results are expressed as the percentage of inhibition respect to control (adhesion of the cells in the absence of compounds).

[3] = tested on: New Zealand White rabbits fed 1% cholesterol diet; assay: Atherogenesis in rabbits fed on high cholesterol diet; type: in vivo, rabbit
Protocol: The method used is substantially the same as described in Shore B, Shore V., In: Day CE (ed) Atherosclerosis Drug Discovery, Plenum Press, New York and London, pp 123-141, 1976.
Twenty-one male New Zealand White rabbits (10 weeks old at the beginning of the protocol) were maintained under standardized conditions (22° C., 40% to 60% humidity) with regular day/night cycle and free access to water. The animals were randomly assigned to 1 of 3 groups. Group 1 (n=5) received standard maintenance diet for 75 days; group 2 (n=16) received the same diet but supplemented with 1% (wt/wt) cholesterol for 45 days. At the end of this period, group 2 was classified into two randomly groups. The treated-group (n=9) receiving for additional 30 days 1.9 mg/kg/day of compound 12 (maintaining the 1% cholesterol in its diet), and the non-treated group (n=[…]) receiving a diet with a 1% of cholesterol for additional 30 days.
Study variables included triglycerides and total cholesterol. Animals were euthanized on day 75 after the start of the protocol with pentobarbital i.v. The entire aorta was removed 1 or 2 cm into the iliac arteries and fixed in buffer phosphate 0.1 M (pH 7.4) with glutaraldehyde (4%). Macroscopic and microscopic analyses of the samples were performed in a blinded fashion. Aortas were dissected and stained with Red Oil. Adventitial fat was removed, and aortas were opened longitudinally, immersed in Red Oil solution for overnight, washed in propylenglycol and fixed onto a flat surface. Images of the aortas were taken with a standard camera. Subsequently, 3 sections were taken from the aortic arch area, the thoracic aorta, and at the abdominal aorta (renal orifices). Sections were paraffin-embedded, were cut with a microtome Ultracut (Spain) and stained conventionally with hematosiline eosin. Images of aortas stained with Red Oil and hematosiline eosin were taken with a standard camera. Images were imported into Photoshop (Adobe) with a AGFA slide scanner. By means of the procedure previously described by Lillie RD (Lillie, R. D., 1994, Stain Technology, vol. 19, pp 55) the surface of injury in all the aorta and the thickness of the intima in histological samples was determined. The surface or area of the atherosclerotic injury (evaluated from the stained aortas with the Red Oil) are determined by the number of pixels of the image turned to mm^2. The intima thickness of the arteria (evaluated from the stained histological samples with Haematosiline-Eosin) was quantified in mm in a similar way to that described the surface or area of the atherosclerotic injury. For it, the sections that contained injuries of fatty striae were selected and the thickness of the intima was determined (from the arterial media to endothelium). The mean thickness of the lesion area was assessed in representative sections per aortic quadrant, and the statistical mean was calculated.

[4] = 1.9 mg/kg/day for 30 days, 1% cholesterol diet, end, mean ± s.e.m.
[5] = treated group, basal, mean ± s.e.m.

EC50 (arterial rings)	SMILES	% of animals fully protected [1]	% of inhibition to control, U937 monocyte adhesion [2]	Plasmatic Total cholesterol, End [3, 4]	Plasmatic Triglycerides, End [3, 4]	influence upon lipid metabolism (plasma lipids vs control) ([3]; 1.9 mg/kg/day for 30 days, in words)	Plasmatic Total cholesterol, Basal [3, 5]	Plasmatic Triglycerides, Basal [3, 5]
23 ± 10 µM	CC(=O)S[C@H]1CO[C@H]2[C@@H]1OC[C@H]2O[N+](=O)[O-] [(12), 2-acetylthio-isosorbide-5-mononitrate]	71%	15 ± 2%	1461 ± 147 mg/dL	347 ± 82 mg/dL	did not influence upon lipid metabolism	33.3 ± 4.1 mg/dL	121 ± 34 mg/dL
41 ± 6 µM	O=[N+]([O-])O[C@@H]1CO[C@H]2[C@@H]1OC[C@@H]2S [(1), 2-thioisosorbide 5-mononitrate]	100%	30 ± 8%					
